Among the data in US20240124418A1 (BioTheryX, Inc., priority 2020, published 2024) are inhibition values, retold here.

The subject of this assay is TNF-α. The assay is described as follows: Cell-based TNF-α inhibition assay (LPS-induced PBMCs, Meso Scale). The following applies: PBMC, PBMCs pretreated 1 h, LPS 100 ng/mL 18-24 h, percentage of stimulated DMSO control; for inhibition at 0.1 µM: compound concentration 0.1 μM; for inhibition at 1 µM: compound concentration 1 μM. As for the experimental part: Example B1. Cell-Based TNF-α Inhibition Assay
Frozen primary blood mononuclear cells (PBMCs) were quick thawed, washed once with RPMI 1640 media supplemented with 10% fetal bovine serum, 1% penicillin, and 1% streptomycin, and plated in a 96 well plate at 200,000 cells per well. The cells were pretreated with DMSO only as a control or a compound for 1 h, and then induced with LPS (lipopolysaccharide) (100 ng/mL) for 18-24 h. The supernatant was analyzed for TNF-α using the Meso Scale assay. Compound activity was determined as a percentage of the stimulated DMSO control. The results are summarized in Table 1, where A represents a percent inhibition value ≥60%; B represents a percent inhibition value <60% and ≥40%; C represents a percent inhibition value <40% and ≥20%; and D represents a single percent inhibition value <20%.

As for `CCOc1cc([C@@H](CS(C)(=O)=O)N2C(=O)c3cccc(NC(=O)CCCCCCC4CN(Cc5ccc(OCc6scc7c6CN(C6CCC(=O)NC6=O)C7=O)cc5)CCO4)c3C2=O)ccc1OC` (stereo partly shown) [Compound A47], the inhibition at 0.1 µM was no less than 60% and the inhibition at 1 µM was no less than 60%.
With `CCOc1cc([C@@H](CS(C)(=O)=O)N2C(=O)c3cccc(NC(=O)CCCc4cn(CCNCc5ccc(OCc6scc7c6CN(C6CCC(=O)NC6=O)C7=O)cc5)nn4)c3C2=O)ccc1OC` (stereo partly drawn) [Compound A48, 4-[1-(2-{[(4-{[5-(2,6-Dioxopiperidin-3-yl)-4-oxo-4H,5H,6H-thieno[3,4-c]pyrrol-1-yl]methoxy}phenyl)methyl]amino}ethyl)-1H-1,2,3-triazol-4-yl]-N-{2-[(1S)-1-(3-ethoxy-4-methoxyphenyl)-2-methanesulfonylethyl]-1,3-dioxo-2,3-dihydro-1H-isoindol-4-yl}butanamide], the inhibition at 0.1 µM is 40 to 60% and the inhibition at 1 µM was no less than 60%.
For `CCOc1cc([C@@H](CS(C)(=O)=O)N2C(=O)c3cccc(CCCCCCCCCCNCc4ccc(OCc5scc6c5CN(C5CCC(=O)NC5=O)C6=O)cc4)c3C2=O)ccc1OC` (stereo partly drawn) [Compound A49, 4-(10-{[(4-{[5-(2,6-Dioxopiperidin-3-yl)-4-oxo-4H,5H,6H-thieno[3,4-c]pyrrol-1-yl]methoxy}phenyl)methyl]amino}decyl)-2-[(1S)-1-(3-ethoxy-4-methoxyphenyl)-2-methanesulfonylethyl]-2,3-dihydro-1H-isoindole-1,3-dione] the same measures were no less than 60% and no less than 60%.
For `CCOc1cc([C@@H](CS(C)(=O)=O)N2C(=O)c3cccc(OCCCCCCCCCNCc4ccc(OCc5scc6c5CN(C5CCC(=O)NC5=O)C6=O)cc4)c3C2=O)ccc1OC` (stereo partly drawn) [Compound A50, 4-[(9-{[(4-{[5-(2,6-Dioxopiperidin-3-yl)-4-oxo-4H,5H,6H-thieno[3,4-c]pyrrol-1-yl]methoxy}phenyl)methyl]amino}nonyl)oxy]-2-[(1S)-1-(3-ethoxy-4-methoxyphenyl)-2-methane-sulfonylethyl]-2,3-dihydro-1H-isoindole-1,3-dione] the same measures were no less than 60% and no less than 60%.
For the compound `CCOc1cc([C@@H](CS(C)(=O)=O)N2C(=O)c3cccc(NCCc4ccc(CCCCNCc5ccc(OCc6scc7c6CN(C6CCC(=O)NC6=O)C7=O)cc5)cc4)c3C2=O)ccc1OC` (stereo partly drawn) [Compound A51, 4-({2-[4-(4-{[(4-{[5-(2,6-Dioxopiperidin-3-yl)-4-oxo-4H,5H,6H-thieno[3,4-c]-pyrrol-1-yl]methoxy}phenyl)methyl]amino}butyl)phenyl]ethyl}amino)-2-[(1S)-1-(3-ethoxy-4-methoxyphenyl)-2-methanesulfonylethyl]-2,3-dihydro-1H-isoindole-1,3-dione], the inhibition at 0.1 µM is no less than 60% and the inhibition at 1 µM was no less than 60%.
Regarding `CCOc1cc([C@@H](CS(C)(=O)=O)N2C(=O)c3cc(CCCCCCCCCCCCC(=O)N[C@H](C(=O)N4C[C@H](O)C[C@H]4C(=O)NCc4ccc(-c5scnc5C)cc4)C(C)(C)C)cc(NC(C)=O)c3C2=O)ccc1OC` [Compound A61, (2S,4R)-1-[(2S)-2-(13-{7-Acetamido-2-[(1S)-1-(3-ethoxy-4-methoxyphenyl)-2-methanesulfonylethyl]-1,3-dioxo-2,3-dihydro-1H-isoindol-5-yl}tridecanamido)-3,3-dimethylbutanoyl]-4-hydroxy-N-{[4-(4-methyl-1,3-thiazol-5-yl)phenyl]methyl}pyrrolidine-2-carboxamide], the inhibition at 0.1 µM was no less than 60% and the inhibition at 1 µM was no less than 60%.
For the compound `CCOc1cc([C@@H](CS(C)(=O)=O)N2C(=O)c3cccc(CCCCCCCCCCC(=O)N[C@H](C(=O)N4C[C@H](O)C[C@H]4C(=O)NCc4ccc(-c5scnc5C)cc4)C(C)(C)C)c3C2=O)ccc1OC` [Compound A62, (2S,4R)-1-[(2S)-2-(11-{2-[(1S)-1-(3-Ethoxy-4-methoxyphenyl)-2-methanesulfonylethyl]-1,3-dioxo-2,3-dihydro-1H-isoindol-4-yl}undecanamido)-3,3-dimethylbutanoyl]-4-hydroxy-N-{[4-(4-methyl-1,3-thiazol-5-yl)phenyl]methyl}pyrrolidine-2-carboxamide], the inhibition at 0.1 µM is no less than 60% and the inhibition at 1 µM is no less than 60%.
For `CCOc1cc([C@@H](CS(C)(=O)=O)N2C(=O)c3cccc(NC(=O)CCCCN4CCN(CC(=O)N[C@H](C(=O)N5C[C@H](O)C[C@H]5C(=O)NCc5ccc(-c6scnc6C)cc5)C(C)(C)C)CC4)c3C2=O)ccc1OC` [Compound A63, (2S,4R)-1-[(2S)-2-(2-{4-[4-({2-[(1S)-1-(3-Ethoxy-4-methoxyphenyl)-2-methanesulfonylethyl]-1,3-dioxo-2,3-dihydro-1H-isoindol-4-yl}carbamoyl)butyl]piperazin-1-yl}acet-amido)-3,3-dimethylbutanoyl]-4-hydroxy-N-{[4-(4-methyl-1,3-thiazol-5-yl)phenyl]methyl}-pyrrolidine-2-carboxamide], the inhibition at 0.1 µM is no less than 60% and the inhibition at 1 µM was no less than 60%.
In the case of `CCOc1cc([C@@H](CS(C)(=O)=O)N2C(=O)c3cccc(NC(=O)CCCCCCCCCCC(=O)N[C@H](C(=O)N4C[C@H](O)C[C@H]4C(=O)NCc4ccc(-c5scnc5C)cc4)C(C)(C)C)c3C2=O)ccc1OC` [Compound A64, N-{2-[(1S)-1-(3-Ethoxy-4-methoxyphenyl)-2-methanesulfonylethyl]-1,3-dioxo-2,3-dihydro-1H-isoindol-4-yl}-N′-[(2S)-1-[(2S,4R)-4-hydroxy-2-({[4-(4-methyl-1,3-thiazol-5-yl)phenyl]methyl}carbamoyl)pyrrolidin-1-yl]-3,3-dimethyl-1-oxobutan-2-yl]dodecanediamide], the inhibition at 0.1 µM is no less than 60% and the inhibition at 1 µM is no less than 60%.
For the compound `CCOc1cc([C@@H](CS(C)(=O)=O)N2C(=O)c3cccc(NC(=O)CCCCCCCCCN[C@H](C(=O)N4C[C@H](O)C[C@H]4C(=O)NCc4ccc(-c5scnc5C)cc4)C(C)(C)C)c3C2=O)ccc1OC` [Compound A65, (2S,4R)-1-[(2S)-2-{[9-({2-[(1S)-1-(3-Ethoxy-4-methoxyphenyl)-2-methanesulfonylethyl]-1,3-dioxo-2,3-dihydro-1H-isoindol-4-yl}carbamoyl)nonyl]amino}-3,3-dimethylbutanoyl]-4-hydroxy-N-{[4-(4-methyl-1,3-thiazol-5-yl)phenyl]methyl}pyrrolidine-2-carboxamide], the inhibition at 0.1 µM was no less than 60% and the inhibition at 1 µM was no less than 60%.
Take `CCOc1cc([C@@H](CS(C)(=O)=O)N2C(=O)c3cccc(NCC(=O)N4CCN(CCCCC(=O)N[C@H](C(=O)N5C[C@H](O)C[C@H]5C(=O)NCc5ccc(-c6scnc6C)cc5)C(C)(C)C)CC4)c3C2=O)ccc1OC` [Compound A66, (2S,4R)-1-[(2S)-2-(5-{4-[2-({2-[(1S)-1-(3-Ethoxy-4-methoxyphenyl)-2-methanesulfonylethyl]-1,3-dioxo-2,3-dihydro-1H-isoindol-4-yl}amino)acetyl]piperazin-1-yl}pentan-amido)-3,3-dimethylbutanoyl]-4-hydroxy-N-{[4-(4-methyl-1,3-thiazol-5-yl)phenyl]methyl}-pyrrolidine-2-carboxamide]: the inhibition at 0.1 µM is 40 to 60% and the inhibition at 1 µM is no less than 60%.
Turning to `CCOc1cc([C@@H](CS(C)(=O)=O)N2C(=O)c3cccc(NC(=O)CCCCCCCCOc4cc(-c5scnc5C)ccc4CNC(=O)[C@@H]4C[C@@H](O)CN4C(=O)[C@@H](NC(C)=O)C(C)(C)C)c3C2=O)ccc1OC` [Compound A74, (2S,4R)-1-[(2S)-2-Acetamido-3,3-dimethylbutanoyl]-N-[(2-{[8-({2-[(1S)-1-(3-ethoxy-4-methoxyphenyl)-2-methanesulfonylethyl]-1,3-dioxo-2,3-dihydro-1H-isoindol-4-yl}-carbamoyl)octyl]oxy}-4-(4-methyl-1,3-thiazol-5-yl)phenyl)methyl]-4-hydroxypyrrolidine-2-carboxamide], the inhibition at 0.1 µM is no less than 60% and the inhibition at 1 µM is no less than 60%.
Turning to `CCOc1cc([C@@H](CS(C)(=O)=O)N2C(=O)c3cccc(NC(=O)CCCCCCCCCCOc4cc(-c5scnc5C)ccc4CNC(=O)[C@@H]4C[C@@H](O)CN4C(=O)[C@@H](NC(C)=O)C(C)(C)C)c3C2=O)ccc1OC` [Compound A75, (2S,4R)-1-[(2S)-2-Acetamido-3,3-dimethylbutanoyl]-N-[(2-{[10-({2-[(1S)-1-(3-ethoxy-4-methoxyphenyl)-2-methanesulfonylethyl]-1,3-dioxo-2,3-dihydro-1H-isoindol-4-yl}-carbamoyl)decyl]oxy}-4-(4-methyl-1,3-thiazol-5-yl)phenyl)methyl]-4-hydroxypyrrolidine-2-carboxamide], the inhibition at 0.1 µM is no less than 60% and the inhibition at 1 µM is no less than 60%.
In the case of `CCOc1cc([C@@H](CS(C)(=O)=O)N2C(=O)c3cccc(NC(=O)CCCCCCOc4cc(-c5scnc5C)ccc4CNC(=O)[C@@H]4C[C@@H](O)CN4C(=O)[C@@H](NC(C)=O)C(C)(C)C)c3C2=O)ccc1OC` [Compound A76, (2S,4R)-1-[(2S)-2-Acetamido-3,3-dimethylbutanoyl]-N-[(2-{[6-({2-[(1S)-1-(3-ethoxy-4-methoxyphenyl)-2-methanesulfonylethyl]-1,3-dioxo-2,3-dihydro-1H-isoindol-4-yl}-carbamoyl)hexyl]oxy}-4-(4-methyl-1,3-thiazol-5-yl)phenyl)methyl]-4-hydroxypyrrolidine-2-carboxamide], the inhibition at 0.1 µM was 40 to 60% and the inhibition at 1 µM is no less than 60%.

Broadly, the inhibition is the relative decrease from the control value, in per cent.
